Data taken from PubChem BioAssay (NCI).
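Each compound was tested at five concentrations against cells in 96-well plates for 48 hours. TGI marks complete inhibition of growth.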

Legend:
Assay in all cases: NCI anticancer screen, dose series, 48 h
786-0 renal = test system: 786-0 renal
A498 renal = test system: A498 renal
A549 NSCLC = test system: A549 NSCLC
ACHN renal = test system: ACHN renal
BT-549 breast = test system: BT-549 breast
CCRF-CEM leukemia = test system: CCRF-CEM leukemia
COLO 205 colon = test system: COLO 205 colon
DLD-1 colon = test system: DLD-1 colon
DMS 114 small cell lung = test system: DMS 114 small cell lung
DMS 273 small cell lung = test system: DMS 273 small cell lung
DU-145 prostate = test system: DU-145 prostate
EKVX NSCLC = test system: EKVX NSCLC
HCC-2998 colon = test system: HCC-2998 colon
HCT-116 colon = test system: HCT-116 colon
HCT-15 colon = test system: HCT-15 colon
HL-60(TB) leukemia = test system: HL-60(TB) leukemia
HOP-18 NSCLC = test system: HOP-18 NSCLC
HOP-62 NSCLC = test system: HOP-62 NSCLC
HOP-92 NSCLC = test system: HOP-92 NSCLC
HS 578T breast = test system: HS 578T breast
HT29 colon = test system: HT29 colon
IGROV1 ovarian = test system: IGROV1 ovarian
K-562 leukemia = test system: K-562 leukemia
KM12 colon = test system: KM12 colon
KM20L2 colon = test system: KM20L2 colon
LOX IMVI melanoma = test system: LOX IMVI melanoma
LXFL 529 NSCLC = test system: LXFL 529 NSCLC
M14 melanoma = test system: M14 melanoma
M19-MEL melanoma = test system: M19-MEL melanoma
MALME-3M melanoma = test system: MALME-3M melanoma
MCF7 breast = test system: MCF7 breast
MDA-MB-231 breast = test system: MDA-MB-231 breast
MDA-MB-435 = test system: MDA-MB-435
MDA-N = test system: MDA-N
MOLT-4 leukemia = test system: MOLT-4 leukemia
NCI-H226 lung = test system: NCI-H226 lung
NCI-H23 lung = test system: NCI-H23 lung
NCI-H460 lung = test system: NCI-H460 lung
NCI-H522 lung = test system: NCI-H522 lung
NCI/ADR-RES ovarian = test system: NCI/ADR-RES ovarian
OVCAR-3 ovarian = test system: OVCAR-3 ovarian
OVCAR-4 ovarian = test system: OVCAR-4 ovarian
OVCAR-5 ovarian = test system: OVCAR-5 ovarian
OVCAR-8 ovarian = test system: OVCAR-8 ovarian
PC-3 prostate = test system: PC-3 prostate
RPMI-8226 leukemia = test system: RPMI-8226 leukemia
RXF 393 renal = test system: RXF 393 renal
SF-268 CNS = test system: SF-268 CNS
SF-295 CNS = test system: SF-295 CNS
SF-539 CNS = test system: SF-539 CNS
SK-MEL-2 melanoma = test system: SK-MEL-2 melanoma
SK-MEL-28 melanoma = test system: SK-MEL-28 melanoma
SK-MEL-5 melanoma = test system: SK-MEL-5 melanoma
SK-OV-3 ovarian = test system: SK-OV-3 ovarian
SN12C renal = test system: SN12C renal
SNB-19 CNS = test system: SNB-19 CNS
SNB-75 CNS = test system: SNB-75 CNS
SNB-78 CNS = test system: SNB-78 CNS
SR leukemia = test system: SR leukemia
SW-620 colon = test system: SW-620 colon
T-47D breast = test system: T-47D breast
TK-10 renal = test system: TK-10 renal
U251 CNS = test system: U251 CNS
UACC-257 melanoma = test system: UACC-257 melanoma
UACC-62 melanoma = test system: UACC-62 melanoma
UO-31 renal = test system: UO-31 renal
XF 498 CNS = test system: XF 498 CNS
RXF-631 renal = test system: RXF-631 renal

Which TGI (786-0 renal) does the source give for `CCC1(OC(=O)CN2CCN(CCO)CC2)C(=O)OCc2c1cc1n(c2=O)Cc2cc3ccccc3nc2-1` (stereo not drawn) here?
Its TGI is 2.53 µM.

What about the TGI (A498 renal) of the same molecule?
The TGI was 1.78 µM.

And the TGI (A549 NSCLC)?
The TGI was 29.5 µM.

What about the TGI (ACHN renal) of the same molecule?
The TGI was 1.52 µM.

And the TGI (BT-549 breast)?
The TGI was 20.4 µM.

And the TGI (CCRF-CEM leukemia)?
The TGI was 0.451 µM.

And the TGI (COLO 205 colon)?
Its TGI is 15.5 µM.

What about the TGI (DLD-1 colon) of the same molecule?
The TGI was over 100 µM.

And the TGI (DMS 114 small cell lung)?
Its TGI is 16.8 µM.

And the TGI (DMS 273 small cell lung)?
The TGI was 0.367 µM.

What about the TGI (DU-145 prostate) of the same molecule?
Its TGI is 2.24 µM.

What about the TGI (EKVX NSCLC) of the same molecule?
Its TGI is 55.9 µM.

And the TGI (HCC-2998 colon)?
Its TGI is 6.29 µM.

What about the TGI (HCT-116 colon) of the same molecule?
The TGI was 3.35 µM.

What about the TGI (HCT-15 colon) of the same molecule?
Its TGI is 26.2 µM.

And the TGI (HL-60(TB) leukemia)?
Its TGI is 3.24 µM.

What about the TGI (HOP-18 NSCLC) of the same molecule?
Its TGI is 25.8 µM.

What about the TGI (HOP-62 NSCLC) of the same molecule?
The TGI was 4.55 µM.

What about the TGI (HOP-92 NSCLC) of the same molecule?
Its TGI is 6.96 µM.

What about the TGI (HS 578T breast) of the same molecule?
Its TGI is over 85.8 µM.

What about the TGI (HT29 colon) of the same molecule?
The TGI was 8.85 µM.

What about the TGI (IGROV1 ovarian) of the same molecule?
Its TGI is 17.4 µM.

And the TGI (K-562 leukemia)?
Its TGI is 26.2 µM.

And the TGI (KM12 colon)?
The TGI was 4.49 µM.

And the TGI (KM20L2 colon)?
Its TGI is 7.46 µM.

What about the TGI (LOX IMVI melanoma) of the same molecule?
Its TGI is 1.58 µM.

What about the TGI (LXFL 529 NSCLC) of the same molecule?
Its TGI is 21.4 µM.

What about the TGI (M14 melanoma) of the same molecule?
The TGI was 1.92 µM.

And the TGI (M19-MEL melanoma)?
Its TGI is 6.99 µM.

And the TGI (MALME-3M melanoma)?
The TGI was 12 µM.

What about the TGI (MCF7 breast) of the same molecule?
Its TGI is 2.18 µM.

What about the TGI (MDA-MB-231 breast) of the same molecule?
The TGI was 65.7 µM.

And the TGI (MDA-MB-435)?
Its TGI is 4.38 µM.

What about the TGI (MDA-N) of the same molecule?
The TGI was 13.1 µM.

And the TGI (MOLT-4 leukemia)?
Its TGI is 1.59 µM.

What about the TGI (NCI-H226 lung) of the same molecule?
The TGI was 2.2 µM.

What about the TGI (NCI-H23 lung) of the same molecule?
The TGI was 2.43 µM.

What about the TGI (NCI-H460 lung) of the same molecule?
The TGI was 0.971 µM.

What about the TGI (NCI-H522 lung) of the same molecule?
The TGI was 3.05 µM.

And the TGI (NCI/ADR-RES ovarian)?
The TGI was 7.99 µM.

And the TGI (OVCAR-3 ovarian)?
The TGI was 3.81 µM.

And the TGI (OVCAR-4 ovarian)?
The TGI was 17 µM.

What about the TGI (OVCAR-5 ovarian) of the same molecule?
The TGI was 7.6 µM.

And the TGI (OVCAR-8 ovarian)?
Its TGI is 16 µM.

What about the TGI (PC-3 prostate) of the same molecule?
Its TGI is over 100 µM.

What about the TGI (RPMI-8226 leukemia) of the same molecule?
Its TGI is 5.28 µM.

What about the TGI (RXF 393 renal) of the same molecule?
The TGI was 3.27 µM.

What about the TGI (SF-268 CNS) of the same molecule?
The TGI was 13.2 µM.

And the TGI (SF-295 CNS)?
The TGI was 15.6 µM.

What about the TGI (SF-539 CNS) of the same molecule?
The TGI was 1.73 µM.

What about the TGI (SK-MEL-2 melanoma) of the same molecule?
The TGI was 9.52 µM.

And the TGI (SK-MEL-28 melanoma)?
Its TGI is 39.2 µM.

What about the TGI (SK-MEL-5 melanoma) of the same molecule?
Its TGI is 1.15 µM.

What about the TGI (SK-OV-3 ovarian) of the same molecule?
The TGI was 14.7 µM.

What about the TGI (SN12C renal) of the same molecule?
Its TGI is 29.8 µM.

And the TGI (SNB-19 CNS)?
The TGI was 28.6 µM.

And the TGI (SNB-75 CNS)?
Its TGI is 1.92 µM.

And the TGI (SNB-78 CNS)?
Its TGI is over 100 µM.

And the TGI (SR leukemia)?
Its TGI is 0.305 µM.

And the TGI (SW-620 colon)?
Its TGI is 10.3 µM.

And the TGI (T-47D breast)?
The TGI was 4.92 µM.

And the TGI (TK-10 renal)?
The TGI was over 100 µM.

And the TGI (U251 CNS)?
The TGI was 2.41 µM.

What about the TGI (UACC-257 melanoma) of the same molecule?
Its TGI is 8.05 µM.

And the TGI (UACC-62 melanoma)?
The TGI was 1.05 µM.

What about the TGI (UO-31 renal) of the same molecule?
The TGI was 0.851 µM.

What about the TGI (XF 498 CNS) of the same molecule?
The TGI was 14.2 µM.

With `C=CC1C2=C(C(=O)NCC2)C2OC(O)C3=C(CCNC3=O)C2C1C` (stereo not drawn) as the molecule, how does the TGI (A549 NSCLC) read?
Its TGI is over 100 µM.

What about the TGI (ACHN renal) of the same molecule?
The TGI was over 100 µM.

What about the TGI (CCRF-CEM leukemia) of the same molecule?
Its TGI is over 100 µM.

What about the TGI (DMS 114 small cell lung) of the same molecule?
The TGI was over 100 µM.

What about the TGI (EKVX NSCLC) of the same molecule?
Its TGI is over 100 µM.

What about the TGI (HCT-116 colon) of the same molecule?
The TGI was over 100 µM.

And the TGI (HL-60(TB) leukemia)?
Its TGI is over 100 µM.

What about the TGI (HOP-92 NSCLC) of the same molecule?
The TGI was over 100 µM.

What about the TGI (IGROV1 ovarian) of the same molecule?
The TGI was over 100 µM.

And the TGI (KM12 colon)?
The TGI was over 100 µM.

And the TGI (MOLT-4 leukemia)?
Its TGI is over 100 µM.

What about the TGI (NCI-H23 lung) of the same molecule?
Its TGI is over 100 µM.

And the TGI (NCI-H522 lung)?
Its TGI is over 100 µM.

What about the TGI (OVCAR-5 ovarian) of the same molecule?
The TGI was over 100 µM.

What about the TGI (RXF 393 renal) of the same molecule?
Its TGI is over 100 µM.

What about the TGI (RXF-631 renal) of the same molecule?
Its TGI is over 100 µM.

And the TGI (SF-268 CNS)?
The TGI was over 100 µM.

What about the TGI (SK-MEL-28 melanoma) of the same molecule?
The TGI was over 100 µM.

And the TGI (SK-OV-3 ovarian)?
The TGI was over 100 µM.

And the TGI (SNB-19 CNS)?
The TGI was over 100 µM.

What about the TGI (SNB-78 CNS) of the same molecule?
Its TGI is over 100 µM.

What about the TGI (SR leukemia) of the same molecule?
Its TGI is over 100 µM.

And the TGI (TK-10 renal)?
The TGI was over 100 µM.

What about the TGI (U251 CNS) of the same molecule?
Its TGI is over 100 µM.

What about the TGI (UACC-62 melanoma) of the same molecule?
The TGI was over 100 µM.

And the TGI (UO-31 renal)?
Its TGI is over 100 µM.
